Source: US20240081326A1, “Use of a Biobased Composition Comprising Ferulated Chitosan as a Pesticide Safener” (FYTEKO SA, priority 2020, published 2024)

Test system: Lemna minor
Test: Lemna minor in vitro relative growth rate and survival with herbicide Profoxydim
Format: in vivo
Details: one week; for relative growth rate (RGR) of Lemna minor plants, substance alone: 10 mg/L in Hoagland medium
Description: The experiment was carried out in Lemna minor growing under in vitro conditions. A stock culture of Lemna minor was maintained on modified Hoagland medium in a controlled environment. […] An experiment was conducted, using fronds free from any visible chlorosis which were taken from the stock cultures and exposed to diverse treatments. For each treatment, six repetitions with three fronds per repetition as the initial frond number were used. […] The multiplate was covered with a transparent cover to prevent evaporation. The relative growth was calculated after one week of incubation in the described conditions, and the survival rate was evaluated.

Row | Compound | relative growth rate (RGR) of Lemna minor plants, substance alone | protective effect on relative growth rate in combination with the herbicide Profoxydim (10 mg/L with 10 mg/L Profoxydim)
1 | CCCC(=NOCC(C)Oc1ccc(Cl)cc1)C1=C(O)CC(C2CCCSC2)CC1=O (stereo not drawn) [Profoxydim] | drastically reduced the RGR | 
2 | COc1cc(/C=C/C(=O)O)ccc1O [ferulic acid] | hindering Lemna minor growth | Neither chitosan nor ferulic acid in combination with the herbicide showed this protective effect
